The values that follow come from patent US7964629B2, “Inhibitors of isoprenylcysteine carboxyl methyltransferase” (Duke Universtiy, priority 2005, dated 2011).

Experiment [1] concerns the target T1, recombinant human Icmt (Homo sapiens, UniProt O60725).
T1 construct: recombinant baculovirus containing the entire open reading frame of the human Icmt cDNA; made in house; host or cells: Sf9 insect cells (baculovirus); membrane fraction used
Nature of the experiment: Icmt assay: [3H]methyl incorporation from [3H]AdoMet into BFC. Type of experiment: biochemical.

For experiment [2], the target named is GGTase-I (Homo sapiens, UniProt P49354+P53609). Nature of the experiment: GGTase-I inhibition (results not shown). Type of experiment: biochemical. As to conditions: concentrations up to 50 μM.
Experiment [3] addresses T2, Rce1 protease (Homo sapiens, UniProt Q9Y256).
T2 construct: made in house; host or cells: Sf9 insect cells; membranes
T2 sequence (Q9Y256 1-329): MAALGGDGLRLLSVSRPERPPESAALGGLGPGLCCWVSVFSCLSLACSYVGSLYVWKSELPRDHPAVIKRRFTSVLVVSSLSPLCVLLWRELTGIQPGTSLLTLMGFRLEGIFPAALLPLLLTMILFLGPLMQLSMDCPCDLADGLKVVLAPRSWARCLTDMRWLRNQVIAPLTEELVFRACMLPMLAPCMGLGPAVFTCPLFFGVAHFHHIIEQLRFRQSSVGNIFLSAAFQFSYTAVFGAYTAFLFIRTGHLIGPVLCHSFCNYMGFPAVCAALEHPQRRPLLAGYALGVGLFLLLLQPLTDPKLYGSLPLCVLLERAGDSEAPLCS
Nature of the experiment: Rce1 protease inhibition (results not shown). Type of experiment: biochemical. As to conditions: concentrations up to 50 μM.

Experiment [4] has as its target SssI DNA methyltransferase (Spiroplasma monobiae, UniProt P15840). As to the kind of experiment: AdoMet-dependent DNA methyltransferase inhibition (results not shown). Type of experiment: biochemical. The conditions noted are these: concentrations up to 50 μM.
The test system of experiment [5] is Icmt+/+ mouse embryonic fibroblasts. Nature of the experiment: Cell growth determination, wild-type fibroblasts. As to conditions: 15, 20, 30 μM; 10% serum; six days. The class given is cell-based. As for the experimental part: (§1) FIGS. 2A-2C. […] Media and drug were replaced daily, and cell growth was monitored for six days. Data represent the mean and standard deviation of four replicate wells. (FIG. 2A) Icmt^+/+ cells; (FIG. 2B) Icmt^−/− cells; (C) Icmt^−/− cells stably transfected with a gene expressing human ICMT (Icmt^−/−/ICMT cells).
(§2) Cell growth assays were performed in a 96-well plate format. Briefly, 500 to 1000 cells were plated into 96-well plates. After the cells were allowed to attach for 24 h, media was removed and replaced with media containing either compound or vehicle. Media and drug were replaced every 24 h throughout the assay. Cell determinations were made at the times indicated in the respective figure by adding 19 μl of CellTiter 96 AqueousOne solution to each well followed by incubation of the plates in the dark at 37° C. for two hr after which the absorbance at 490 nm was read. Background absorbance from blank wells containing only media with compound or vehicle was subtracted from each test well. Typically, 3-6 replicate wells were employed for each point in each assay.

The test system of experiment [6] is Icmt−/−/ICMT cells. Nature of the experiment: Cell growth determination, Icmt−/− cells expressing human ICMT. The conditions noted are these: 15, 20, 30 μM; 10% serum; six days. Type of experiment: cell-based, mouse. On the procedure: as §1, §2
Experiment [7] has as its system p42/44 MAPK phosphorylation in DKOB8 colon cancer cells. Nature of the experiment: Phosphoprotein analysis: EGF-stimulated p42/44 MAPK. Type of experiment: cell-based. The conditions noted are these: 1 μM, three days, 1% serum, EGF 10 min. On the procedure:
(§3) FIGS. 3A and 3B. Impact of cysmethynil treatment on Ras localization and signaling. FIG. 3A. Mislocalization of GFP Ras in cysmethynil treated cells. […] Live cells were imaged on a spinning disk confocal microscope. FIG. 3B. Impact of cysmethynil treatment on EGF-stimulated protein phosphorylation. […] Where indicated, cells were treated with EGF for the final 10 min prior to harvesting. Cell lysates containing equal amounts of protein were resolved on a 13% SDS-polyacrylamide gel and probed with antiphospho-Akt, antiphospho-p42/44 MAPK or anti-β-tubulin antibody as indicated. […] Half of the wells were then treated with EGF (10 ng/ml) and half with vehicle for 10 min. Cells were rinsed with PBS and harvested in SDS-PAGE loading buffer. Total cell lysates (30 μg protein) were resolved on 4-20% Tris-glycine polyacrylamide gels (Invitrogen). Proteins were transferred to nitrocellulose and probed with a mix of anti-phospho-Akt and anti-phospho-p42/44 MAPK antibodies, or with anti-tubulin or anti-phospho NFκB antibody (Cell Signaling Technology) as indicated. Visualization was performed with alkaline phosphatase (Promega, Madison, Wis.) as per the manufacturer's instructions.

In experiment [8] the test system is Akt phosphorylation in DKOB8 colon cancer cells. Nature of the experiment: Phosphoprotein analysis: EGF-stimulated Akt. The class given is cell-based. The conditions noted are these: 1 μM, three days, 1% serum, EGF 10 min. As for the experimental part:
as §3

The test system of experiment [9] is DKOB8/GFP-Icmt colon cancer cells. Nature of the experiment: Soft agar growth assay, DKOB8/GFP-Icmt. The class given is cell-based. As to conditions: 20 μM, three weeks; elevated Icmt activity. As for the experimental part: FIGS. 4A-4C. Overexpression of Icmt rescues EGF-stimulated MAPK activation and anchorage-independent growth in cysmethynil-treated cells. FIG. 4A. Creation of cell lines stably overexpressing Icmt. DKOB8 cells were engineered to stably express either GFP alone or a GFP-Icmt fusion protein. Membrane fractions from GFP and GFP-ICMT expressing lines were assayed for Icmt activity using the BFC assay. FIG. 4B. Overexpression of Icmt restores EGF-stimulated MAPK activation in cysmethynil-treated cells. […] Where indicated, cells were treated with EGF for the final 10 min prior to harvesting. Cell lysates containing equal amounts of protein were resolved on a 13% SDS-polyacrylamide gel and probed with antiphospho-p42/44 MAPK or, as a control, antiphospho NFκB antibody as indicated. FIG. 4C. […] After 3 weeks of growth, colonies were stained with MTT and imaged. Soft agar culture media was prepared with 10% FBS in 1× minimum essential medium (MEM) alpha. […] Cells were harvested by trypsinization at ˜80% confluence, mixed into top agar (10,000 cells/plate; 0.3% noble agar in soft agar culture media) and poured onto prepared plates. […] For each condition, triplicate samples (each consisting of three plates) were prepared. […]

The test system of experiment [10] is Rac1 in MDA-MB-231 breast cancer cells. As to the kind of experiment: Immunoblot of steady-state Rac level. The class given is cell-based. The conditions noted are these: 20 μM, 6 day treatment. As for the experimental part: The impact of Icmt inhibition on function of the geranylgeranylated GTPases Rho and Rac in cells has been examined. This study was carried out in MD-MBA-231 breast cancer cells. Tumorigenesis and metastatic behavior of these cells is dependent on high levels of Rho GTPases in particular. […] Cells were harvested and lysates containing equal amounts of protein were resolved by SDS-PAGE and subjected to immunoblot analysis with specific antibodies to RhoA (FIG. 7A), or Rac1 (FIG. 7B). As a control, immunoblot analysis for α-tubulin was carried out on all samples.
(In general: A western blot detects proteins with antibodies after separation by electrophoresis.)

Read-outs that look alike come from different tables or passages of the source.

T1 sequence (O60725 whole entry): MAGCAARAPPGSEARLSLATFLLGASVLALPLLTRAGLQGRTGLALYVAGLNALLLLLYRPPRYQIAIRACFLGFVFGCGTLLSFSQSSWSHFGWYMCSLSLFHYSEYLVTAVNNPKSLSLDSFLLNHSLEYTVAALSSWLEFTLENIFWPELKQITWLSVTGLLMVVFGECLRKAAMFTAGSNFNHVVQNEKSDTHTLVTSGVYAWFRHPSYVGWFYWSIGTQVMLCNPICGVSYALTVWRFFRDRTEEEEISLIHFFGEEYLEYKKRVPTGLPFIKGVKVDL
Sequence of SssI DNA methyltransferase (P15840 whole entry): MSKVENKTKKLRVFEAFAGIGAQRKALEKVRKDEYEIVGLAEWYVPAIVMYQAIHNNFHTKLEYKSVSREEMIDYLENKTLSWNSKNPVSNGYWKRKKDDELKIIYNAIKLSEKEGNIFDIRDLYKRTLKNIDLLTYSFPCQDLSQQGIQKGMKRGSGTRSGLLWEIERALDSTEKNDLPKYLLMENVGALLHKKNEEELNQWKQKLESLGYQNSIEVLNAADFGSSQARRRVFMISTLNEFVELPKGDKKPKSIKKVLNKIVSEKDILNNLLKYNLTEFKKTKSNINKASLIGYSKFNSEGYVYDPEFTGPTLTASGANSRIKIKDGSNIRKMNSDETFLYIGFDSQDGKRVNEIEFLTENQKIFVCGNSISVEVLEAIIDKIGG

Consider `CCCCCCCCn1cc(CC(N)=O)c2cc(-c3cccc(C)c3)ccc21` [cysmethynil, 2-[5-(3-methylphenyl)-1-octyl-1H-indol-3-yl]acetamide], for which the IC50 was 2400 nM in experiment [1] (BFC substrate, substrates and inhibitor premixed, reaction initiated by addition of enzyme, read-out: IC50 for Icmt inhibition); 2100 ± 900 nM in experiment [1] (Table 1, R1 substituent x scaffold matrix, read-out: IC50); 290 nM in [1] (Table 3, pre-incubation with Icmt for 30 min at 37° C., read-out: IC50 PI (converted)); 2100 ± 900 nM in experiment [1] (Table 3, without pre-incubation of the enzyme with the compound, read-out: IC50 No PI); < 200 nM in experiment [1] (enzyme premixed with inhibitor and AdoMet for 15 min prior to initiation with BFC, read-out: IC50 for Icmt inhibition). Besides, the “inhibition of GGTase-I” value in experiment [2] is listed as “did not inhibit”. Besides, the “inhibition of Rce1 protease” value in experiment [3] was “did not inhibit”. Moreover, the “inhibition of SssI DNA methyltransferase” value in [4] is on record as “nor did it inhibit”. For the same compound, the values for the cell growth result in experiment [5] and in [6] were “dose-dependent inhibition of growth” and “regained sensitivity”, respectively. Further, the “EGF-induced increase in MAPK” value in [7] was “almost completely blocked”. The “EGF-induced increase in Akt phosphorylation” value in [8] is listed as “partially but not completely attenuated”. Also, in [9], the “ability of cells to form colonies in soft agar” value is “rescue the ability of the cells to form colonies”. The Rac levels reduced in [10] was > 80%.

Broadly, the IC50 is the concentration needed to halve the response being measured.
